From patent publication US11542240B2, “STK19 inhibitors for treatment of cancer” (TRUSTEES OF BOSTON UNIVERSITY, priority 2018, dated 2023)
Read-outs that look alike come from different tables or passages of the source.

Legend:
Assay in all cases: biochemical
Format in all cases: binding
[1] = molecular target: panel of 468 diverse kinases (Homo sapiens, UniProt P22607, G697C); details: FGFR3(G697C); 1000 nM; read-out: Percent Control
[2] = molecular target: panel of 468 diverse kinases (Homo sapiens, UniProt Q8TD08); details: ERK8; 1000 nM; read-out: Percent Control
[3] = molecular target: panel of 468 diverse kinases (Homo sapiens, UniProt P24941); details: CDK2; 1000 nM; read-out: Percent Control
[4] = molecular target: panel of 468 diverse kinases (Homo sapiens, UniProt Q8IU85); details: CAMK1D; 1000 nM; read-out: Percent Control
[5] = molecular target: panel of 468 diverse kinases (Homo sapiens, UniProt O15075); details: DCAMKL1; 1000 nM; read-out: Percent Control
[6] = molecular target: panel of 468 diverse kinases (Homo sapiens, UniProt Q8NFD2); details: ANKK1; 1000 nM; read-out: Percent Control
[7] = molecular target: panel of 468 diverse kinases (Homo sapiens, UniProt P31152); details: ERK4; 1000 nM; read-out: Percent Control
[8] = molecular target: panel of 468 diverse kinases (Homo sapiens, UniProt Q9BVS4); details: RIOK2; 1000 nM; read-out: Percent Control
[9] = molecular target: panel of 468 diverse kinases (Homo sapiens, UniProt Q9P1W9); details: PIM2; 1000 nM; read-out: Percent Control
[10] = molecular target: panel of 468 diverse kinases (Homo sapiens, UniProt Q9NWZ3); details: IRAK4; 1000 nM; read-out: Percent Control
[11] = molecular target: panel of 468 diverse kinases (Homo sapiens, UniProt P04626); details: ERBB2; 1000 nM; read-out: Percent Control
panel of 468 diverse kinases (Homo sapiens, UniProt P04626), sequence (P04626 23-1255 limits assumed): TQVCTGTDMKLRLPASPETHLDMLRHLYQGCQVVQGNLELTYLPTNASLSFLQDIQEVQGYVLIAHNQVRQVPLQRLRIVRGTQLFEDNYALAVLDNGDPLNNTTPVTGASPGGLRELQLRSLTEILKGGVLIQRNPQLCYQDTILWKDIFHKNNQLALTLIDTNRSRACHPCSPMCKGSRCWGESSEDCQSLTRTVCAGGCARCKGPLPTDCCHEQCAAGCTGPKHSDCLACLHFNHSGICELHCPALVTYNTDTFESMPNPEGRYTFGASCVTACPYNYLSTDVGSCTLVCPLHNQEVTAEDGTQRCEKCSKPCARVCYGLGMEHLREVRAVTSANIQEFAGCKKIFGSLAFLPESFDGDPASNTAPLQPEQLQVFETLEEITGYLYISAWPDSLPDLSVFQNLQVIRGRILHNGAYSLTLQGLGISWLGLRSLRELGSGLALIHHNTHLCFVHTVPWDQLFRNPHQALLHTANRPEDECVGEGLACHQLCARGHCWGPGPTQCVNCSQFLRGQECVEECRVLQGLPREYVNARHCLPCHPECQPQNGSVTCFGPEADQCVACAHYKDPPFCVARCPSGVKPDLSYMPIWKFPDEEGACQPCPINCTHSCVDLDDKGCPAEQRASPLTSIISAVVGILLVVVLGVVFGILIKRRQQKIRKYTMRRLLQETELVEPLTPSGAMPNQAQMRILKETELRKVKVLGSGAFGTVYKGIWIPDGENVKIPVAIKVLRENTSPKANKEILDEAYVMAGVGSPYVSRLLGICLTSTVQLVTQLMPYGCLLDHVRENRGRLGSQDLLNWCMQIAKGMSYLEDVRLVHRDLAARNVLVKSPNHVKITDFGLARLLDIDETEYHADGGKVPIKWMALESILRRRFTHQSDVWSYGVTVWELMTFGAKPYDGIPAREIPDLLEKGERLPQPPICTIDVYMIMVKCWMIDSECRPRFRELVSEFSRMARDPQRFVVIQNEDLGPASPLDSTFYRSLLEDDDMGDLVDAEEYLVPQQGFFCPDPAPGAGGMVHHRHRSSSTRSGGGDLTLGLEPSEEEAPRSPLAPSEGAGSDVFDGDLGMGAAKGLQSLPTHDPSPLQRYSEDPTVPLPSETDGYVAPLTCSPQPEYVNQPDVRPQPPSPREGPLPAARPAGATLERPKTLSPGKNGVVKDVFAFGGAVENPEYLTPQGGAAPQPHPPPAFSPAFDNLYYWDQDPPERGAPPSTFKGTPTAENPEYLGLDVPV

[12] = molecular target: panel of 468 diverse kinases (Homo sapiens, UniProt P42345); details: MTOR; 1000 nM; read-out: Percent Control
[13] = molecular target: panel of 468 diverse kinases (Homo sapiens, UniProt P41240); details: CSK; 1000 nM; read-out: Percent Control
panel of 468 diverse kinases (Homo sapiens, UniProt P41240), sequence (P41240 2-450 limits assumed): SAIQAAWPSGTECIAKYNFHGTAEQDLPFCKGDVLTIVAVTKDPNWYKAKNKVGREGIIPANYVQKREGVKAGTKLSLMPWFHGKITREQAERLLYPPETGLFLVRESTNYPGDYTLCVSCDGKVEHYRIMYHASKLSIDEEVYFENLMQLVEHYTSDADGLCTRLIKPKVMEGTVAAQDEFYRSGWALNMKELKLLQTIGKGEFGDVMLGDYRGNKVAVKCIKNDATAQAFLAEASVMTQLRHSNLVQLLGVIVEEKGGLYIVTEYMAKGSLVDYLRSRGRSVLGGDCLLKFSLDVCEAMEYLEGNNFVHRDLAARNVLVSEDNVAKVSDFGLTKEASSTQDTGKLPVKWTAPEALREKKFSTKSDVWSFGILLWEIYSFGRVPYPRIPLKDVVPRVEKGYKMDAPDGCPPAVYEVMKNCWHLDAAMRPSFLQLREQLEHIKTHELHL

[14] = molecular target: panel of 468 diverse kinases (Homo sapiens, UniProt Q13153); details: PAK1; 1000 nM; read-out: Percent Control
panel of 468 diverse kinases (Homo sapiens, UniProt Q13153), sequence (Q13153 2-545 limits assumed): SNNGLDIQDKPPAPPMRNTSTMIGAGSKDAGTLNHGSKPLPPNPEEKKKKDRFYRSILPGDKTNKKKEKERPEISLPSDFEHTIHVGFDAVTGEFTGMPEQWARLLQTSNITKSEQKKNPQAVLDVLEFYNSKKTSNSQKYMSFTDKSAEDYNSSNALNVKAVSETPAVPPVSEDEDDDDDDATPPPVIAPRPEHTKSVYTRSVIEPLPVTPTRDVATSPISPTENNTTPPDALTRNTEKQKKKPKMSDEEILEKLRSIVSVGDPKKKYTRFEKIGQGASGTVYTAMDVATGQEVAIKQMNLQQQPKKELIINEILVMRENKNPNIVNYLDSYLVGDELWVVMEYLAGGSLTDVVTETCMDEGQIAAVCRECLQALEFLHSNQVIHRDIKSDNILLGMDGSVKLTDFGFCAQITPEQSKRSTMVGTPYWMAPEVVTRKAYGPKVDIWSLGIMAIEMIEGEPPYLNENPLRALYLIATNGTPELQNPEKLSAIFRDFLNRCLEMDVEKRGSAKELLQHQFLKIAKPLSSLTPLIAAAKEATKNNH

[15] = molecular target: panel of 468 diverse kinases (Homo sapiens, UniProt Q13557); details: CAMK2D; 1000 nM; read-out: Percent Control
panel of 468 diverse kinases (Homo sapiens, UniProt Q13557), sequence (Q13557 2-499 limits assumed): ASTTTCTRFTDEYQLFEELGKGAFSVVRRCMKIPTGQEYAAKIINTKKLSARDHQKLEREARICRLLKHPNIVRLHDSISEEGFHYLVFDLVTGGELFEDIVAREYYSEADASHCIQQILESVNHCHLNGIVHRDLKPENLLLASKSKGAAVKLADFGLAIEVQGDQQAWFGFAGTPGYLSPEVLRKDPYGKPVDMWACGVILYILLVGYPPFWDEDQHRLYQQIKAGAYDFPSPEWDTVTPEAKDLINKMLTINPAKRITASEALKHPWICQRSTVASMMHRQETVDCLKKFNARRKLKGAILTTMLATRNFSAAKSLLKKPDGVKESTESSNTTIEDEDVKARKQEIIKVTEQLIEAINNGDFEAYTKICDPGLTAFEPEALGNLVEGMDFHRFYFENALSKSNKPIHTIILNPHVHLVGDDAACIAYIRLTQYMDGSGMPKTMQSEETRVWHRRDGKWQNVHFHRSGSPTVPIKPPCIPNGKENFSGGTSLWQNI

[16] = molecular target: panel of 468 diverse kinases (Homo sapiens, UniProt Q92630); details: DYRK2; 1000 nM; read-out: Percent Control
[17] = molecular target: panel of 468 diverse kinases (Homo sapiens, UniProt P49761); details: CLK3; 1000 nM; read-out: Percent Control
[18] = molecular target: panel of 468 diverse kinases (Homo sapiens, UniProt P42336, H1047Y); details: PIK3CA(H1047Y); 1000 nM; read-out: Percent Control
[19] = molecular target: panel of 468 diverse kinases (Homo sapiens, UniProt P00533); details: EGFR; 1000 nM; read-out: Percent Control
panel of 468 diverse kinases (Homo sapiens, UniProt P00533), sequence (P00533 25-1210 limits assumed): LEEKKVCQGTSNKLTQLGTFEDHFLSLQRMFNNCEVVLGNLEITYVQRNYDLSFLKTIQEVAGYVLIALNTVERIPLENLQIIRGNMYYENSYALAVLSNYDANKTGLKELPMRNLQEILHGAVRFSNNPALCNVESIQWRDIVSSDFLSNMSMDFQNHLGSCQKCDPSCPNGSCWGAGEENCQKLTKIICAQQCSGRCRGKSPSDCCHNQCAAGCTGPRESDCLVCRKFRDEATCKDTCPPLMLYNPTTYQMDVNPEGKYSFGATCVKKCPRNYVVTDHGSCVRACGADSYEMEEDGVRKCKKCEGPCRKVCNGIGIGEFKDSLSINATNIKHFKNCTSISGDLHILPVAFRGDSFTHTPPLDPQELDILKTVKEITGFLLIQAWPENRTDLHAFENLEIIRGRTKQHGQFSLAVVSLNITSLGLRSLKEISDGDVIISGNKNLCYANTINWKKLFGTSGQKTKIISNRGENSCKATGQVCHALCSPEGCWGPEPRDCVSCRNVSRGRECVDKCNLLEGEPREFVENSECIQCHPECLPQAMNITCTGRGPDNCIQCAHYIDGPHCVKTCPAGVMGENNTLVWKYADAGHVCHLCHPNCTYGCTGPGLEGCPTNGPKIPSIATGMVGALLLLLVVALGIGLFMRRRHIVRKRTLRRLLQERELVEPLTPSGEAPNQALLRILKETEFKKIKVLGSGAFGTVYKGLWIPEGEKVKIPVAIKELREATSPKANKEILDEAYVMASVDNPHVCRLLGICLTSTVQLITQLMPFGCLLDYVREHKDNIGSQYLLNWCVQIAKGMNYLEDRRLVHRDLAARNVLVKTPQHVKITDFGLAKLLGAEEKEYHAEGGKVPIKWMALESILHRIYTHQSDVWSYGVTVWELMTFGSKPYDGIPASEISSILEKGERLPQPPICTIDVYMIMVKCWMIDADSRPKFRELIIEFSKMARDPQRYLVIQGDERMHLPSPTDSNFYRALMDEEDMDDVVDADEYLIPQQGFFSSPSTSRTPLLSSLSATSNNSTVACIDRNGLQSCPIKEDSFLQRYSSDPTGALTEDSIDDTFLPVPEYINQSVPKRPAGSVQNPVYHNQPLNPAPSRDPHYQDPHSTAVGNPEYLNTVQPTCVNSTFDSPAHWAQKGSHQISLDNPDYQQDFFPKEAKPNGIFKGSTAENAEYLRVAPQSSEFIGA

[20] = molecular target: panel of 468 diverse kinases (Homo sapiens, UniProt P54646); details: AMPK-alpha2; 1000 nM; read-out: Percent Control
[21] = molecular target: panel of 468 diverse kinases (Homo sapiens, UniProt P11309); details: PIM1; 1000 nM; read-out: Percent Control
[22] = molecular target: panel of 468 diverse kinases (Homo sapiens, UniProt P51812); details: 1000 nM, read-out: Percent Control
[23] = molecular target: panel of 468 diverse kinases (Homo sapiens, UniProt Q8NEB9); details: VPS34; 1000 nM; read-out: Percent Control
[24] = molecular target: panel of 468 diverse kinases (Homo sapiens, UniProt Q8IWQ3); details: BRSK2; 1000 nM; read-out: Percent Control
[25] = molecular target: panel of 468 diverse kinases (Homo sapiens, UniProt Q9BYP7); details: WNK3; 1000 nM; read-out: Percent Control
[26] = molecular target: panel of 468 diverse kinases (Homo sapiens, UniProt P19784); details: CSNK2A2; 1000 nM; read-out: Percent Control
[27] = molecular target: panel of 468 diverse kinases (Homo sapiens, UniProt Q9NY57); details: YANK2; 1000 nM; read-out: Percent Control
[28] = molecular target: panel of 468 diverse kinases (Homo sapiens, UniProt P68400); details: CSNK2A1; 1000 nM; read-out: Percent Control
[29] = molecular target: panel of 468 diverse kinases (Homo sapiens, UniProt Q96L34); details: MARK4; 1000 nM; read-out: Percent Control
[30] = molecular target: panel of 468 diverse kinases (Homo sapiens, UniProt P42336, E542K); details: PIK3CA(E542K); 1000 nM; read-out: Percent Control

panel of 468 diverse kinases (Homo sapiens, UniProt P22607, G697C), sequence (P22607 23-806 G697C limits assumed): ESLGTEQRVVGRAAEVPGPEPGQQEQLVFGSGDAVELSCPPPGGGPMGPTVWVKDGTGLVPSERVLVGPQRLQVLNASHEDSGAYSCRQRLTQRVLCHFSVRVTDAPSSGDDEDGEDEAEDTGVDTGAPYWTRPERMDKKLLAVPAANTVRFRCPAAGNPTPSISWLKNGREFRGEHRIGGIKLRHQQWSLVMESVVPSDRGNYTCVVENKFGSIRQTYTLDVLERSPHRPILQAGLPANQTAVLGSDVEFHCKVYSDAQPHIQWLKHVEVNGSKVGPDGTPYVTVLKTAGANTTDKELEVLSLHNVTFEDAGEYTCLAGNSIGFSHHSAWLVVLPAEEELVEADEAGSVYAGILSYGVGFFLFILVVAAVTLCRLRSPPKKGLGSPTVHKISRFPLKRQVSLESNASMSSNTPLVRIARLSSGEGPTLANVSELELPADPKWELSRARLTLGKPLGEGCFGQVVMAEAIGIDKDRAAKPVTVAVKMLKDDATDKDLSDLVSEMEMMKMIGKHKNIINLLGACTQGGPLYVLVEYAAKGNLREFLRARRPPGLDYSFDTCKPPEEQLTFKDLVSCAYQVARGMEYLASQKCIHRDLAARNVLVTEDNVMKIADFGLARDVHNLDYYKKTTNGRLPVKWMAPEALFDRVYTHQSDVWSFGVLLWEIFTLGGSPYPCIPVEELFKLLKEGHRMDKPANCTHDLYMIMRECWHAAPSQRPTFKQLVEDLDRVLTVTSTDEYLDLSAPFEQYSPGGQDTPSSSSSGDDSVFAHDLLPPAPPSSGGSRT

COc1cc2nc(NC3CC3)nc(NC3CCN(C(C)C)CC3)c2cc1OC [Formula IV]
remaining activity at 1 µM [1]: 100% | remaining activity at 1 µM [2]: 83% | remaining activity at 1 µM [3]: 91% | remaining activity at 1 µM [4]: 100% | remaining activity at 1 µM [5]: 53% | remaining activity at 1 µM [6]: 50% | remaining activity at 1 µM [7]: 91% | remaining activity at 1 µM [8]: 80% | remaining activity at 1 µM [9]: 91% | remaining activity at 1 µM [10]: 78% | remaining activity at 1 µM [11]: 100% | remaining activity at 1 µM [12]: 87% | remaining activity at 1 µM [13]: 98% | remaining activity at 1 µM [14]: 87% | remaining activity at 1 µM [15]: 89% | remaining activity at 1 µM [16]: 84% | remaining activity at 1 µM [17]: 91% | remaining activity at 1 µM [18]: 91% | remaining activity at 1 µM [19]: 97% | remaining activity at 1 µM [20]: 93% | remaining activity at 1 µM [21]: 90% | remaining activity at 1 µM ([22]; RSK2(Kin.Dom.1-N-terminal)): 67% | remaining activity at 1 µM ([22]; RSK2(Kin.Dom.2-C-terminal)): 53% | remaining activity at 1 µM [23]: 51% | remaining activity at 1 µM [24]: 100% | remaining activity at 1 µM [25]: 69% | remaining activity at 1 µM [26]: 63% | remaining activity at 1 µM [27]: 56% | remaining activity at 1 µM [28]: 61% | remaining activity at 1 µM [29]: 95% | remaining activity at 1 µM [30]: 70%
